#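 Following 48 hours of exposure in 96-well plates, responses at five concentrations were used to interpolate endpoints linearly. GI50 is the concentration that inhibits growth by half. At the TGI there is no net growth.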
# Tests used:
# Test in all cases: NCI tumour cell line growth inhibition, 48 h
# [1] = system: TK-10 renal
# [2] = system: MDA-MB-435
# [3] = system: MOLT-4 leukemia
# [4] = system: SR leukemia
# [5] = system: NCI/ADR-RES ovarian
# [6] = system: HOP-92 NSCLC
# [7] = system: HL-60(TB) leukemia
# [8] = system: CAKI-1 renal
# [9] = system: COLO 205 colon
# [10] = system: ACHN renal
# [11] = system: HCT-116 colon
# [12] = system: UACC-257 melanoma
# [13] = system: BT-549 breast
# [14] = system: RXF 393 renal
# [15] = system: SNB-19 CNS
# [16] = system: T-47D breast
# [17] = system: SF-268 CNS
# [18] = system: HCC-2998 colon
# [19] = system: A498 renal
# [20] = system: NCI-H226 lung
# [21] = system: PC-3 prostate
# [22] = system: SNB-75 CNS
# [23] = system: RPMI-8226 leukemia
# [24] = system: SF-539 CNS
# [25] = system: HCT-15 colon
# [26] = system: HOP-62 NSCLC
# [27] = system: SK-MEL-28 melanoma
# [28] = system: HS 578T breast
# [29] = system: SF-295 CNS
# [30] = system: U251 CNS
# [31] = system: HT29 colon
# [32] = system: K-562 leukemia
# [33] = system: SK-OV-3 ovarian
# [34] = system: 786-0 renal
# [35] = system: MDA-MB-231 breast
# [36] = system: CCRF-CEM leukemia
# [37] = system: IGROV1 ovarian
# [38] = system: UACC-62 melanoma
# [39] = system: LOX IMVI melanoma
# [40] = system: OVCAR-8 ovarian
# [41] = system: KM12 colon
# [42] = system: SK-MEL-2 melanoma
# [43] = system: SW-620 colon
# [44] = system: MCF7 breast
# [45] = system: EKVX NSCLC
# [46] = system: SK-MEL-5 melanoma
# [47] = system: NCI-H23 lung
# [48] = system: OVCAR-4 ovarian
# [49] = system: NCI-H460 lung
# [50] = system: M14 melanoma
# [51] = system: OVCAR-3 ovarian
# [52] = system: NCI-H522 lung
# [53] = system: A549 NSCLC
# [54] = system: OVCAR-5 ovarian
# [55] = system: UO-31 renal
# [56] = system: DU-145 prostate
# [57] = system: MALME-3M melanoma
# [58] = system: SN12C renal
structure (smiles),measurement,setting,value
CC1=NN(c2nc(N)nc(CSc3nc4n(c(=S)n3)CCN4)n2)C(C)(C)C1,TGI,[1],> 100 µM
same,TGI,[2],> 100 µM
same,TGI,[3],> 100 µM
same,TGI,[4],> 100 µM
same,TGI,[5],> 100 µM
same,TGI,[6],44.3 µM
same,TGI,[7],> 100 µM
same,TGI,[8],61.2 µM
same,TGI,[9],> 100 µM
same,TGI,[10],> 100 µM
same,TGI,[11],> 100 µM
same,TGI,[12],> 100 µM
same,TGI,[13],> 100 µM
same,TGI,[14],38.7 µM
same,TGI,[15],> 100 µM
same,TGI,[16],54.1 µM
same,TGI,[17],35.2 µM
same,TGI,[18],> 100 µM
same,TGI,[19],> 100 µM
same,TGI,[20],53.1 µM
same,TGI,[21],> 100 µM
same,TGI,[22],39.7 µM
same,TGI,[23],> 100 µM
same,TGI,[24],> 100 µM
same,TGI,[25],> 100 µM
same,TGI,[26],27.9 µM
same,TGI,[27],> 100 µM
same,TGI,[28],41.3 µM
same,TGI,[29],74 µM
same,TGI,[30],> 100 µM
same,TGI,[31],> 100 µM
same,TGI,[32],> 100 µM
same,TGI,[33],71.6 µM
same,TGI,[34],> 100 µM
same,TGI,[35],> 100 µM
same,TGI,[36],> 100 µM
same,TGI,[37],51.5 µM
same,TGI,[38],> 100 µM
same,TGI,[39],> 100 µM
same,TGI,[40],47.3 µM
same,TGI,[41],> 100 µM
same,TGI,[42],62.6 µM
same,TGI,[43],> 100 µM
same,TGI,[44],> 100 µM
same,TGI,[45],> 100 µM
same,TGI,[46],> 100 µM
same,TGI,[47],> 100 µM
same,TGI,[48],> 100 µM
same,TGI,[49],> 100 µM
same,TGI,[50],> 100 µM
NC(=O)c1c(NC(=O)c2ccccn2)sc2c1CCC(=O)C2,GI50,[1],5 µM
same,TGI,[1],> 100 µM
same,GI50,[2],3.22 µM
same,TGI,[2],> 100 µM
same,GI50,[3],> 100 µM
same,TGI,[3],> 100 µM
same,GI50,[51],3.25 µM
same,TGI,[51],45.7 µM
same,GI50,[4],832 nM
same,TGI,[4],> 100 µM
same,GI50,[6],2750 nM
same,TGI,[6],> 100 µM
same,GI50,[52],821 nM
same,TGI,[52],8.65 µM
same,GI50,[10],2620 nM
same,TGI,[10],> 100 µM
same,GI50,[11],3.5 µM
same,TGI,[11],> 100 µM
same,GI50,[13],2180 nM
same,TGI,[13],> 100 µM
same,GI50,[14],3.53 µM
same,TGI,[14],> 100 µM
same,GI50,[15],3.45 µM
same,TGI,[15],> 100 µM
same,GI50,[16],2480 nM
same,TGI,[16],> 100 µM
same,GI50,[53],> 100 µM
same,TGI,[53],> 100 µM
same,GI50,[17],3.49 µM
same,TGI,[17],> 100 µM
same,GI50,[19],> 100 µM
same,TGI,[19],> 100 µM
same,TGI,[21],> 100 µM
same,GI50,[54],3.05 µM
same,TGI,[54],> 100 µM
same,GI50,[25],2630 nM
same,TGI,[25],> 100 µM
same,GI50,[26],> 100 µM
same,TGI,[26],> 100 µM
same,GI50,[28],4.22 µM
same,TGI,[28],> 100 µM
same,GI50,[30],2140 nM
same,TGI,[30],> 100 µM
same,GI50,[32],1540 nM
same,TGI,[32],> 100 µM
same,GI50,[33],> 100 µM
same,TGI,[33],> 100 µM
same,GI50,[36],2020 nM
same,TGI,[36],> 100 µM
same,GI50,[37],3.24 µM
same,TGI,[37],> 100 µM
same,GI50,[38],2520 nM
same,TGI,[38],67.1 µM
same,GI50,[39],3.72 µM
same,TGI,[39],> 100 µM
same,GI50,[40],3.45 µM
same,TGI,[40],> 100 µM
same,GI50,[41],3.26 µM
same,TGI,[41],> 100 µM
same,GI50,[43],882 nM
same,TGI,[43],> 100 µM
same,GI50,[44],2370 nM
same,TGI,[44],> 100 µM
same,GI50,[45],5.01 µM
same,TGI,[45],> 100 µM
same,GI50,[55],1820 nM
same,TGI,[55],6.63 µM
same,GI50,[56],> 100 µM
same,TGI,[56],> 100 µM
same,GI50,[49],> 100 µM
same,TGI,[49],> 100 µM
same,GI50,[50],3.88 µM
same,TGI,[50],> 100 µM
O=C(NCCNCCCNC(=O)c1cc(-c2ccccc2)nc2ccccc12)c1cccc(O)c1O,TGI,[1],64.4 µM
same,TGI,[2],13.1 µM
same,TGI,[3],> 100 µM
same,TGI,[51],26.3 µM
same,TGI,[5],> 100 µM
same,TGI,[6],62.9 µM
same,TGI,[57],20.2 µM
same,TGI,[52],29.7 µM
same,TGI,[7],> 100 µM
same,TGI,[8],> 100 µM
same,TGI,[9],22.4 µM
same,TGI,[10],20 µM
same,TGI,[11],28.5 µM
same,TGI,[12],18.5 µM
same,TGI,[13],11.9 µM
same,TGI,[14],47.7 µM
same,TGI,[15],11.8 µM
same,TGI,[16],10.8 µM
same,TGI,[53],> 100 µM
same,TGI,[17],16.4 µM
same,TGI,[18],17.4 µM
same,TGI,[19],55.9 µM
same,TGI,[20],36.3 µM
same,TGI,[21],> 100 µM
same,TGI,[22],60.9 µM
same,TGI,[54],13.9 µM
same,TGI,[23],15.3 µM
same,TGI,[24],11.6 µM
same,TGI,[25],26.8 µM
same,TGI,[26],15.9 µM
same,TGI,[27],18.5 µM
same,TGI,[28],> 100 µM
same,TGI,[29],28.7 µM
same,TGI,[30],17.6 µM
same,TGI,[31],22.2 µM
same,TGI,[32],11.1 µM
same,TGI,[33],> 100 µM
same,TGI,[34],> 100 µM
same,TGI,[35],> 100 µM
same,TGI,[58],52.6 µM
same,TGI,[36],> 100 µM
same,TGI,[37],28.9 µM
same,TGI,[38],12.1 µM
same,TGI,[39],> 100 µM
same,TGI,[41],76.6 µM
same,TGI,[42],15.1 µM
same,TGI,[43],> 100 µM
same,TGI,[44],15.9 µM
same,TGI,[45],> 100 µM
same,TGI,[46],4.09 µM
same,TGI,[47],37.8 µM
same,TGI,[55],14.9 µM
same,TGI,[56],> 100 µM
same,TGI,[49],41.6 µM
same,TGI,[50],10.4 µM
CCC1CN(C(=O)c2ccccc2)C(Cc2c[nH]c3ccccc23)C(=O)C1CC(=O)OC (stereo not drawn),TGI,[1],> 100 µM
same,TGI,[2],> 100 µM
same,TGI,[3],> 100 µM
same,TGI,[4],> 100 µM
same,TGI,[5],> 100 µM
same,TGI,[6],> 100 µM
same,TGI,[57],> 100 µM
same,TGI,[52],> 100 µM
same,TGI,[7],> 100 µM
same,TGI,[8],> 100 µM
same,TGI,[9],> 100 µM
same,TGI,[10],> 100 µM
same,TGI,[12],> 100 µM
same,TGI,[13],> 100 µM
same,TGI,[14],> 100 µM
same,TGI,[16],> 100 µM
same,TGI,[17],> 100 µM
same,TGI,[19],64.3 µM
same,TGI,[20],> 100 µM
same,TGI,[21],> 100 µM
same,TGI,[22],> 100 µM
same,TGI,[54],> 100 µM
same,TGI,[24],> 100 µM
same,TGI,[25],> 100 µM
same,TGI,[26],> 100 µM
same,TGI,[27],> 100 µM
same,TGI,[28],> 100 µM
same,TGI,[29],> 100 µM
same,TGI,[30],> 100 µM
same,TGI,[31],> 100 µM
same,TGI,[32],> 100 µM
same,TGI,[33],> 100 µM
same,TGI,[58],> 100 µM
same,TGI,[36],> 100 µM
same,TGI,[37],> 100 µM
same,TGI,[38],> 100 µM
same,TGI,[39],> 100 µM
same,TGI,[40],> 100 µM
same,TGI,[41],> 100 µM
same,TGI,[42],> 100 µM
same,TGI,[43],> 100 µM
same,TGI,[44],> 100 µM
same,TGI,[45],> 100 µM
same,TGI,[46],> 100 µM
same,TGI,[47],> 100 µM
same,TGI,[55],> 100 µM
same,TGI,[56],> 100 µM
same,TGI,[48],> 100 µM
same,TGI,[49],> 100 µM
same,TGI,[50],> 100 µM

# From PubChem BioAssay (NCI)
